The text below walks through data of patent US20160297851A1, “BROAD SPECTRUM […]” (priority 2012, published 2016).

For one experiment, the system named is wild type E. coli MG1655. The experiment in a line: microbe, parasite or virus in culture. The format is cell-based, Escherichia coli.
Experiment [1] relates to Rhodococcus equi ATCC 6939. The experiment is described as follows: microbe, parasite or virus in culture. The format is cell-based. To be noted: Rhodococcus (subgen. Prescottella) equi, ATCC6939.
The test system of the next experiment is Bacillus subtilis 168. The experiment in a line: microbe, parasite or virus in culture. The experiment is classed as cell-based.
Experiment [2] concerns Lactobacillus acidophilus ATCC 4356. The experiment in a line: microbe, parasite or virus in culture. The format is cell-based. To be noted: ATCC4356.
The test system of a further experiment is Clostridium bolteae. The experiment is described as follows: microbe, parasite or virus in culture. The format is cell-based. To be noted: Enterocloster bolteae.
Experiment [3] has as its target full-length wild type S. aureus SPase (Pro-variant) (Staphylococcus aureus, UniProt P0A070). The experiment is described as follows: Equilibrium binding, arylomycin fluorescence.
Experiment [4] has as its target full-length P29S mutant S. aureus SPase (Ser-variant) (Staphylococcus aureus, UniProt P0A070, P29S). The experiment in a line: Equilibrium binding, arylomycin fluorescence.

≈ marks a conversion by molar mass, not a printed value. Where two headings read alike, the source gives them in different places.

For `CCCCCCCCCCCCCCCC(=O)N(C)[C@H](CO)C(=O)N[C@H](C)C(=O)NCC(=O)N(C)[C@@H]1C(=O)N[C@@H](C)C(=O)N[C@H](C(=O)O)Cc2ccc(O)c(c2)-c2cc1ccc2O` [Arylomycin C16, arylomycin C16], the MIC is greater than 64 mg/L with wild type E. coli MG1655 (Escherichia coli, MG1655, Resistant strain (wild type), read-out: MIC); greater than 128 mg/L in the experiment with wild type E. coli MG1655 (Resistant strain (wild type)); 16 mg/L (≈ 18.2 µM) in experiment [1]; greater than 128 mg/L against Bacillus subtilis 168; greater than 128 mg/L in experiment [2]; greater than 16 mg/L against Clostridium bolteae. In addition, the Kd in experiment [3] came to 1.28 ± 0.278 µM; in experiment [4] it was 0.13 ± 0.053 µM.
